The term Ki denotes the dissociation constant of the complex between target and ligand, obtained from inhibition or displacement. Read a low Ki as tighter binding.

Assay [1] addresses Induced myeloid leukemia cell differentiation protein Mcl-1 (Homo sapiens, UniProt Q07820). As to the kind of experiment: Inhibition of 6-carboxyfluorescein succinimidyl ester fluorescence tagged-Bid BH3 peptide (79 to 99 residues) binding to Mcl-1 (unknown origin) after 30 mins by fluorescence polarization assay.
For assay [2], the target named is Apoptosis regulator Bcl-2 (Homo sapiens, UniProt P10415). As to the kind of experiment: Inhibition of 6-carboxyfluorescein succinimidyl ester fluorescence tagged-Bid BH3 peptide (79 to 99 residues) binding to Bcl-2 (unknown origin) after 30 mins by fluorescence polarization assay. A general note: Fluorescence polarisation rises when a labelled molecule tumbles more slowly, as on binding a larger partner.
Sequence of Apoptosis regulator Bcl-2 (P10415 whole entry, the tested form may be a part): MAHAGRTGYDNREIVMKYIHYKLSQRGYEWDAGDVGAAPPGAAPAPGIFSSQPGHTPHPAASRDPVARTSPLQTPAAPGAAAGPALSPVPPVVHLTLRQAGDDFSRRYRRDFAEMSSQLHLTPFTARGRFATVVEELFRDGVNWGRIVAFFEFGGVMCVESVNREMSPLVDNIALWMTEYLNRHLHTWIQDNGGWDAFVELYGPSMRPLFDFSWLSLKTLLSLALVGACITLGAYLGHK

Sequence of Induced myeloid leukemia cell differentiation protein Mcl-1 (Q07820 whole entry, the tested form may be a part): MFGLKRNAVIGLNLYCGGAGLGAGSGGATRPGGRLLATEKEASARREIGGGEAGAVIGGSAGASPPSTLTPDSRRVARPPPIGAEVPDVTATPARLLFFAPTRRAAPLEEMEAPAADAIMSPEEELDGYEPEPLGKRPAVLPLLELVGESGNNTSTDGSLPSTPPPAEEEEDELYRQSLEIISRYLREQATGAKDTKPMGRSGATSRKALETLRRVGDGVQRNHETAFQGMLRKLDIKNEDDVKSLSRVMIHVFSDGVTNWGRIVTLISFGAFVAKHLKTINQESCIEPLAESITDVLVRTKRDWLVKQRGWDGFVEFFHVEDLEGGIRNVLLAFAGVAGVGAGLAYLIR

The compound `Cc1cccc(OCCCn2ccc3ccc(OCC(=O)O)cc32)c1` registered an inhibition constant (Ki) in assay [1] greater than 30000 nM.
Same read-out and setting: for `COc1ccc(OCCCn2ccc3ccc(OCC(=O)O)cc32)cc1` the value was 4420 nM; for `O=C(O)COc1ccc2ccn(CCCOc3ccc(Cl)cc3)c2c1`, 12900 nM.
`Cc1cc(OCCCn2c(C(N)=O)cc3ccc(OCc4ccccc4C(=O)O)cc32)cc(C)c1Cl`: the Ki is 850 nM in assay [2] and 950 nM in assay [1].
Turning to `CC(C)(C)c1ccc(OCCn2ccc3ccc(OCC(=O)O)cc32)cc1`, in assay [1], the affinity corresponds to a Ki of 8190 nM.
Regarding `CC(C)(C)c1ccc(OCCCn2ccc3cc(OCc4ccccc4C(=O)O)ccc32)cc1`, the Ki was 170 nM in assay [2] and 310 nM in assay [1].
In assay [1], `Cc1cc(OCCCn2ccc3c(OCC(=O)O)cccc32)cc(C)c1Cl` came in with a Ki of 2000 nM.
Still for that read-out and setting: for `NC(=O)c1cc2ccc(OCC(=O)O)cc2n1CCCOc1cccc2ccccc12` the value was 10300 nM; for `NC(=O)c1cc2ccc(OCC(=O)O)cc2n1CCCOc1ccc(Oc2ccccc2)cc1`, 4130 nM; for `Cc1cc(C)cc(OCCCn2ccc3ccc(OCC(=O)O)cc32)c1`, 12500 nM.
The same measure, in the same setting: the value for `Cc1cc(OCCCn2ccc3ccccc32)cc(C)c1Cl` was greater than 30000 nM.
For the compound `CC(C)(C)c1ccc(OCCCn2ccc3cc(OCc4cccc(C(=O)O)c4)ccc32)cc1`, the Ki came out at 470 nM in assay [2] and 250 nM in assay [1].
Take `O=C(O)COc1ccc2ccn(CCCOc3ccccc3)c2c1`: the Ki in assay [1] was greater than 30000 nM.
For the compound `CC(C)(C)c1ccc(OCCCn2c(C(=O)N3CCCCC3)cc3ccc(OCc4ccccc4C(=O)O)cc32)cc1`, the Ki in assay [2] was 150 nM; in assay [1], 360 nM.
For the compound `Cc1cc(OCCCn2ccc3ccc(C(=O)O)cc32)cc(C)c1Cl`, the affinity in assay [1] corresponds to a Ki of 3000 nM.
`Cc1cc(OCCCn2c(C(=O)N(C)C)cc3ccc(OCc4ccccc4C(=O)O)cc32)cc(C)c1Cl`: the Ki in assay [2] was 730 nM; in assay [1] it was 570 nM.
In the case of `O=C(O)COc1ccc2ccn(CCCOc3cccc4ccccc34)c2c1`, the Ki in assay [1] was found to be 2570 nM.
The same measure, in the same setting: for `Cc1cc(OCCCn2ccc3ccc(OCCO)cc32)cc(C)c1Cl` the value was 2100 nM; for `O=C(O)COc1ccc2ccn(CCCOc3ccc(Oc4ccccc4)cc3)c2c1`, 3240 nM.
As to `Cc1cc(OCCCn2ccc3c(OCc4cccc(C(=O)O)c4)cccc32)cc(C)c1Cl`, the inhibition constant Ki in assay [2] worked out at 140 nM; in assay [1] it was 150 nM.
Regarding `Cc1cc2c(C(C)C)c(O)c(O)c(C=O)c2c(O)c1-c1c(C)cc2c(C(C)C)c(O)c(O)c(C=O)c2c1O` [GOSSYPOL], the affinity in assay [1], expressed as Ki, was 200 nM.
With `CNC(=O)c1cc2ccc(OCc3ccccc3C(=O)O)cc2n1CCCOc1cc(C)c(Cl)c(C)c1`, the Ki turned out to be 810 nM in assay [2] and 890 nM in assay [1].
Consider `CC(C)(C)c1ccc(SCCCn2ccc3ccc(OCC(=O)O)cc32)cc1`, for which the Ki in assay [1] is 2380 nM.
Same read-out and setting: for `Cc1cc(OCCn2ccc3ccc(OCC(=O)O)cc32)cc(C)c1Cl` the value was 11600 nM.
In the case of `Cc1cc(OCCCn2c(C(=O)N3CCCCC3)cc3ccc(OCc4ccccc4C(=O)O)cc32)cc(C)c1Cl`, the Ki in assay [2] turned out to be 270 nM; in assay [1], 200 nM.
`Cc1cc(OCCCn2ccc3ccc(OCC(=O)O)cc32)ccc1Cl` displayed a Ki in assay [1] of 9890 nM.
The same measure, in the same setting: the value for `Cc1cc(OCCCn2ccc3cc(OCC(=O)O)ccc32)cc(C)c1Cl` was 1490 nM; that for `CC(C)(C)Oc1ccc(OCCCn2c(C(N)=O)cc3ccc(OCC(=O)O)cc32)cc1` was 5380 nM.
In turn, `CC(C)(C)Oc1ccc(OCCCn2ccc3ccc(OCC(=O)O)cc32)cc1` yielded a Ki in assay [1] of 1870 nM.
For `Cc1cc(OCCCn2ccc3ccc(OCc4ccc(C(=O)O)cc4)cc32)cc(C)c1Cl`, the Ki in assay [2] is 1240 nM; in assay [1] it was 1190 nM.
With `Cc1cc(OCCCn2ccc3ccc(OCC(=O)O)cc32)cc(C)c1Cl`, the affinity in assay [1], expressed as Ki, was 1500 nM.
Turning to `Cc1cc(OCCCn2ccc3cc(OCc4cccc(C(=O)O)c4)ccc32)cc(C)c1Cl`, the Ki is 410 nM in assay [2] and 200 nM in assay [1].
The corresponding values for `Cc1cc(OCCCn2ccc3ccc(OCc4cccc(C(=O)O)c4)cc32)cc(C)c1Cl` are 1190 nM and 740 nM.
The compound `Cc1ccc2ccn(CCCOc3cc(C)c(Cl)c(C)c3)c2c1` returned a Ki in assay [1] greater than 30000 nM.
Same read-out and setting: the value for `COc1ccc(OCCCn2c(C(N)=O)cc3ccc(OCC(=O)O)cc32)cc1` was 7780 nM.
`Cc1cc(OCCCn2ccc3cc(OCc4ccccc4C(=O)O)ccc32)cc(C)c1Cl`: the Ki was found to be 760 nM in assay [2] and 110 nM in assay [1].
For `Cc1cc(OCCCn2ccc3cc(OCc4ccc(C(=O)O)cc4)ccc32)cc(C)c1Cl`, in that order: 1410 nM and 1630 nM.
Turning to `CCOC(=O)c1ccc2ccn(CCCOc3cc(C)c(Cl)c(C)c3)c2c1`, in assay [1], the Ki is greater than 30000 nM.
Take `Cc1cc(OCCCn2ccc3ccc(OCc4ccccc4C(=O)O)cc32)cc(C)c1Cl`: the Ki came to 1050 nM in assay [2] and 800 nM in assay [1].
In assay [1], `Cc1cc(OCCCn2ccc3ccc(OCCCC(=O)O)cc32)cc(C)c1Cl` came in with a Ki of 2680 nM.
With `Cc1cc(OCCCn2ccc3c(OCc4ccccc4C(=O)O)cccc32)cc(C)c1Cl`, the Ki in assay [2] was 230 nM; in assay [1] it was 140 nM.
Take `CCOC(=O)COc1ccc2ccn(CCCOc3cc(C)c(Cl)c(C)c3)c2c1`: the affinity in assay [1], expressed as Ki, was 3370 nM.
